We go through 12 compounds from PubChem BioAssay (NCI).

Test systems include PC-3 prostate; UO-31 renal; MOLT-4 leukemia; CCRF-CEM leukemia; HOP-62 NSCLC; SF-268 CNS; A498 renal; DU-145 prostate; SN12C renal; COLO 205 colon; M14 melanoma; CAKI-1 renal; OVCAR-3 ovarian; HL-60(TB) leukemia; SK-OV-3 ovarian; SK-MEL-2 melanoma; SK-MEL-5 melanoma; RPMI-8226 leukemia; HCC-2998 colon; OVCAR-8 ovarian.
Holding throughout (experiment): growth of human tumour cells (NCI), 48 h

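A five-concentration, 48-hour dose response in 96-well plates underlies each endpoint, interpolated linearly between surrounding concentrations. TGI marks complete inhibition of growth.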

In the case of `CO/N=C(/C(=O)OC)c1ccccc1COc1cccc(C(F)(F)F)c1`, the TGI is above 100 µM in the experiment with PC-3 prostate; above 100 µM in the experiment on UO-31 renal; 34.4 µM in the experiment on MOLT-4 leukemia; 65.1 µM in the experiment on CCRF-CEM leukemia; above 100 µM in the experiment on HOP-62 NSCLC; above 100 µM with SF-268 CNS. In addition, the TGI in the experiment on A498 renal is above 100 µM; in the experiment on DU-145 prostate, above 100 µM; in the experiment with SN12C renal, above 100 µM; in the experiment on COLO 205 colon, above 100 µM; in the experiment with M14 melanoma it was above 100 µM; in the experiment on CAKI-1 renal, 56.1 µM. Moreover, the TGI is 93.7 µM in the experiment with OVCAR-3 ovarian; 49 µM in the experiment with HL-60(TB) leukemia; above 100 µM in the experiment with SK-OV-3 ovarian; above 100 µM in the experiment on SK-MEL-2 melanoma; 17.9 µM with SK-MEL-5 melanoma; 25.4 µM in the experiment on RPMI-8226 leukemia.
For the compound `[C-]#[N+]C1(C(=O)OCC)CC1`, the TGI with PC-3 prostate, in the experiment with MOLT-4 leukemia, in the experiment with CCRF-CEM leukemia, in the experiment on HOP-62 NSCLC, in the experiment with SF-268 CNS and in the experiment on A498 renal was above 100 µM throughout. Moreover, the TGI in the experiment on DU-145 prostate, with SN12C renal, in the experiment on M14 melanoma, in the experiment on OVCAR-3 ovarian, in the experiment on HL-60(TB) leukemia and with HCC-2998 colon was above 100 µM each time. Besides, the TGI with SK-MEL-5 melanoma, in the experiment with OVCAR-8 ovarian and with RPMI-8226 leukemia was above 100 µM throughout.
With `Nc1cccc(C#Cc2cccc(C#Cc3cccc(N)n3)n2)n1`, the TGI is above 100 µM with PC-3 prostate; above 100 µM in the experiment on UO-31 renal; above 100 µM in the experiment on MOLT-4 leukemia; 31.4 µM in the experiment on CCRF-CEM leukemia; above 100 µM in the experiment with HOP-62 NSCLC; above 100 µM in the experiment on SF-268 CNS. Further, the TGI with A498 renal, with DU-145 prostate, in the experiment on SN12C renal, in the experiment on COLO 205 colon, in the experiment with M14 melanoma and with CAKI-1 renal was above 100 µM throughout. Besides, the TGI in the experiment on OVCAR-3 ovarian, in the experiment with SK-OV-3 ovarian, in the experiment with HCC-2998 colon, with SK-MEL-2 melanoma, in the experiment on SK-MEL-5 melanoma and with OVCAR-8 ovarian was above 100 µM in each case. The same compound yielded a TGI in the experiment with RPMI-8226 leukemia above 100 µM.
Consider `O=C(CN1CCOCC1)Nc1ccc2c(c1)C1Oc3ccccc3CC1CO2` (stereo unspecified), for which the TGI in the experiment on PC-3 prostate, with UO-31 renal, with MOLT-4 leukemia, in the experiment on CCRF-CEM leukemia, in the experiment on HOP-62 NSCLC and in the experiment on SF-268 CNS was above 100 µM throughout. The TGI in the experiment with A498 renal, in the experiment on DU-145 prostate, with SN12C renal, with COLO 205 colon, in the experiment with M14 melanoma and in the experiment with CAKI-1 renal was above 100 µM in each case. Moreover, the TGI with OVCAR-3 ovarian, in the experiment on SK-OV-3 ovarian, with HCC-2998 colon, with SK-MEL-2 melanoma, in the experiment on SK-MEL-5 melanoma and in the experiment on OVCAR-8 ovarian was above 100 µM in each case. Further, in the experiment with RPMI-8226 leukemia, the TGI was above 100 µM.
As for `Cc1ccc(S(=O)(=O)NC2=NS(=O)(=O)c3cc(C)c(Cl)cc3S2)cc1`, the TGI with PC-3 prostate, with UO-31 renal, in the experiment with MOLT-4 leukemia, in the experiment with HOP-62 NSCLC, in the experiment with SF-268 CNS and in the experiment with A498 renal was above 100 µM each time. Also, the TGI in the experiment with DU-145 prostate, in the experiment on SN12C renal, in the experiment on COLO 205 colon, in the experiment on M14 melanoma, with CAKI-1 renal and in the experiment with OVCAR-3 ovarian was above 100 µM in each case. For the same compound, the TGI in the experiment with HL-60(TB) leukemia, in the experiment on SK-OV-3 ovarian, in the experiment on HCC-2998 colon, in the experiment with SK-MEL-2 melanoma, with SK-MEL-5 melanoma and in the experiment on OVCAR-8 ovarian was above 100 µM each time. Also, the TGI in the experiment on RPMI-8226 leukemia was above 100 µM.
On to `Cc1cc(C)c(NS(=O)c2cccc(Cl)c2)c(C)c1` (stereo unspecified), for which the TGI with PC-3 prostate, with UO-31 renal, with MOLT-4 leukemia, in the experiment on CCRF-CEM leukemia, with HOP-62 NSCLC and in the experiment with SF-268 CNS was above 100 µM throughout. Moreover, the TGI in the experiment on A498 renal, in the experiment on DU-145 prostate, with SN12C renal, in the experiment with COLO 205 colon, in the experiment on M14 melanoma and in the experiment with OVCAR-3 ovarian was above 100 µM each time. The TGI in the experiment on HL-60(TB) leukemia, with OVCAR-8 ovarian and in the experiment with RPMI-8226 leukemia was above 100 µM throughout.
With `CC(=O)N1N=C(c2c(O)ccc3ccccc23)CC1c1ccc(Cl)cc1` (stereo unspecified), the TGI with PC-3 prostate is 68.9 µM; with UO-31 renal it was 93.4 µM; in the experiment with MOLT-4 leukemia it was 31 µM; with CCRF-CEM leukemia, 25.7 µM; with HOP-62 NSCLC, 37 µM; in the experiment with SF-268 CNS, above 100 µM. In addition, the TGI was 66.3 µM in the experiment with A498 renal; above 100 µM with DU-145 prostate; 39.3 µM in the experiment on SN12C renal; 39.2 µM in the experiment with COLO 205 colon; 33.5 µM with M14 melanoma; above 100 µM in the experiment on CAKI-1 renal. The TGI in the experiment on OVCAR-3 ovarian is 32.1 µM; in the experiment on SK-OV-3 ovarian, above 100 µM; in the experiment with HCC-2998 colon it was 34 µM; in the experiment with SK-MEL-2 melanoma, 38.2 µM; in the experiment with SK-MEL-5 melanoma it was 47 µM; in the experiment on OVCAR-8 ovarian it was above 100 µM. In the experiment with RPMI-8226 leukemia, this compound showed a TGI of 45.8 µM.
Regarding `CN(C)/C=C/c1ccncc1`, the TGI in the experiment with PC-3 prostate, in the experiment with UO-31 renal, in the experiment with MOLT-4 leukemia, in the experiment with CCRF-CEM leukemia, in the experiment with HOP-62 NSCLC and in the experiment on SF-268 CNS was above 100 µM throughout. The TGI in the experiment with A498 renal, in the experiment with DU-145 prostate, with SN12C renal, in the experiment on COLO 205 colon, in the experiment on M14 melanoma and with CAKI-1 renal was above 100 µM in each case. Further, the TGI in the experiment on OVCAR-3 ovarian, with SK-OV-3 ovarian, with HCC-2998 colon, with SK-MEL-2 melanoma, in the experiment with SK-MEL-5 melanoma and in the experiment on OVCAR-8 ovarian was above 100 µM in each case. In the experiment with RPMI-8226 leukemia, this compound yielded a TGI above 100 µM.
For `CC(C)c1ccc2[nH]c(O)c(C3=Nc4ccccc4C3=O)c2c1`, the TGI in the experiment with PC-3 prostate is 54.8 µM; with UO-31 renal, above 100 µM; with MOLT-4 leukemia it was 61.5 µM; in the experiment with CCRF-CEM leukemia, above 100 µM; with HOP-62 NSCLC it was 21 µM; in the experiment on SF-268 CNS, above 100 µM. In addition, the TGI is 5.5 µM with A498 renal; 94.5 µM in the experiment on DU-145 prostate; above 100 µM in the experiment on SN12C renal; above 100 µM in the experiment with COLO 205 colon; above 100 µM in the experiment with M14 melanoma; above 100 µM in the experiment with CAKI-1 renal. Moreover, the TGI was 53.8 µM in the experiment on OVCAR-3 ovarian; 30.2 µM in the experiment with SK-OV-3 ovarian; above 100 µM in the experiment on HCC-2998 colon; 53.8 µM in the experiment on SK-MEL-2 melanoma; above 100 µM with SK-MEL-5 melanoma; above 100 µM with OVCAR-8 ovarian. The same compound displayed a TGI with RPMI-8226 leukemia above 100 µM.
With `Clc1ccccc1-c1nnc2c(-c3ccccc3)nc3ccccc3n12`, the TGI was above 100 µM in the experiment with PC-3 prostate; above 100 µM in the experiment on MOLT-4 leukemia; 83.2 µM with CCRF-CEM leukemia; above 100 µM in the experiment on HOP-62 NSCLC; above 100 µM in the experiment with SF-268 CNS; above 100 µM in the experiment with A498 renal. Besides, the TGI with DU-145 prostate, with SN12C renal, in the experiment with COLO 205 colon, in the experiment on M14 melanoma, with OVCAR-3 ovarian and with HL-60(TB) leukemia was above 100 µM throughout. Besides, the TGI in the experiment with SK-OV-3 ovarian, with HCC-2998 colon, in the experiment on SK-MEL-2 melanoma, with SK-MEL-5 melanoma and in the experiment on RPMI-8226 leukemia was above 100 µM in each case.
In the case of `CCOC(=O)c1nc2ccccc2nc1Oc1ccc(OC)cc1`, the TGI with PC-3 prostate, in the experiment on UO-31 renal, in the experiment with MOLT-4 leukemia, with CCRF-CEM leukemia, in the experiment on HOP-62 NSCLC and in the experiment with SF-268 CNS was above 100 µM throughout. Besides, the TGI in the experiment with A498 renal, in the experiment on DU-145 prostate, in the experiment with SN12C renal, in the experiment on COLO 205 colon, in the experiment with M14 melanoma and in the experiment with OVCAR-3 ovarian was above 100 µM throughout. Moreover, the TGI in the experiment with HL-60(TB) leukemia, in the experiment on SK-OV-3 ovarian, in the experiment on SK-MEL-2 melanoma, with SK-MEL-5 melanoma, with OVCAR-8 ovarian and with RPMI-8226 leukemia was above 100 µM each time.
In the case of `CSC(=S)OC1C(CO[Si](C)(C)C(C)(C)C)OC2OC(C)(C)OC21` (stereo unspecified), the TGI in the experiment with PC-3 prostate was 38.4 µM; in the experiment on UO-31 renal, 32 µM; with MOLT-4 leukemia, 30.5 µM; with CCRF-CEM leukemia, 34 µM; in the experiment with HOP-62 NSCLC it was 34.4 µM; in the experiment with SF-268 CNS, 45.9 µM. Moreover, the TGI in the experiment with A498 renal is 43.4 µM; in the experiment with DU-145 prostate it was above 100 µM; with SN12C renal it was 37.1 µM; with COLO 205 colon it was 36.1 µM; with M14 melanoma, above 100 µM; in the experiment on CAKI-1 renal, above 100 µM. Moreover, the TGI in the experiment on OVCAR-3 ovarian came to 31.3 µM; with SK-OV-3 ovarian it was 41.5 µM; in the experiment with HCC-2998 colon it was 49 µM; in the experiment with SK-MEL-2 melanoma, 28.5 µM; with SK-MEL-5 melanoma, 30.4 µM; with OVCAR-8 ovarian it was 95.8 µM. The compound further came in with a TGI in the experiment on RPMI-8226 leukemia of 36.5 µM.
